{"source": "patent US11053234B2", "about": "(GlaxoSmithKline Intellectual Property Development Limited, priority 2016, dated 2021)", "biological_target": "T1, haematopoietic prostaglandin D synthase (H-PGDS) (Homo sapiens, UniProt O60760)", "T1 construct": "Full length human H-PGDS cDNA (Invitrogen Ultimate ORF 10H13026) was amplified by PCR; 6-His (N); TEV protease cleavage site (N); made in house; host or cells: E. coli BL21 (DE3*), vector pET22b+", "T1 sequence (O60760 whole entry)": "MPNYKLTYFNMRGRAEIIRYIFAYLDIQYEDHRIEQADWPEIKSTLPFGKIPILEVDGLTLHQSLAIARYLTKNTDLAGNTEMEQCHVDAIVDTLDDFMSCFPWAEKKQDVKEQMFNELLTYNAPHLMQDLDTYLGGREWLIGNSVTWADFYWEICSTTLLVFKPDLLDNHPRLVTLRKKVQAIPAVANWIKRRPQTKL", "test": "H-PGDS RapidFire high throughput mass spectrometry assay (conversion of PGH2 to PGD2)", "assay_type": "biochemical", "settings": "10 nM H-PGDS, PGH2 formed in situ by COX-2 from arachidonic acid; read-out: Potency Range (mean pIC50) (converted)", "summary_of_the_method": "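RapidFire SPE–MS read-out calculated percent conversion from relative PGD2 and PGF2α (substrate surrogate) levels. Recombinant full-length human H-PGDS (His-tag, E. coli) turned over PGH2, produced in situ at ˜10 μM by human COX-2 (FLAG-tag, Sf9 cells) acting on arachidonic acid.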", "data": [{"smiles": "CC(C)(O)[C@H]1CC[C@H](NC(=O)[C@H]2C[C@H](Oc3cc(F)ccc3F)C2)CC1", "note": "[Example 229, (trans)-3-(2,5-Difluorophenoxy)-N-((trans)-4-(2-hydroxypropan-2-yl)cyclohexyl)cyclobutanecarboxamide]", "values": [{"measurement": "IC50", "result": "100 to 1000", "unit": "nM"}]}, {"smiles": "CCOC(=O)Cc1csc(NC(=O)[C@H]2C[C@H](Oc3cccc4ccoc34)C2)n1", "note": "[Example 262, Ethyl 2-(2-((trans)-3-(benzofuran-7-yloxy)cyclobutanecarboxamido)thiazol-4-yl)acetate]", "values": [{"measurement": "IC50", "result": "10 to 79.4", "unit": "nM"}]}, {"smiles": "COc1ccc(F)cc1O[C@H]1C[C@H](C(=O)Nc2nc(C(C)=O)cs2)C1", "note": "[Example 163, (trans)-N-(4-Acetylthiazol-2-yl)-3-(5-fluoro-2-methoxyphenoxy)cyclobutanecarboxamide]", "values": [{"measurement": "IC50", "result": "10 to 79.4", "unit": "nM"}]}, {"smiles": "O=C(Nc1ccnc(C2CC2)n1)N1CC(Oc2cccc3scnc23)C1", "note": "[Example 312, 3-(Benzo[d]thiazol-4-yloxy)-N-(2-cyclopropylpyrimidin-4-yl)azetidine-1-carboxamide]", "values": [{"measurement": "IC50", "result": "10 to 79.4", "unit": "nM"}]}, {"smiles": "CC(=O)c1csc(NC(=O)[C@H]2C[C@H](Oc3cccc4cccnc34)C2)n1", "note": "[Example 186, trans-N-(4-Acetylthiazol-2-yl)-3-(quinolin-8-yloxy)cyclobutanecarboxamide]", "values": [{"measurement": "IC50", "result": "10 to 79.4", "unit": "nM"}]}, {"smiles": "CC(C)(O)C1CC2(CC(NC(=O)[C@H]3C[C@H](Oc4cccc5cccnc45)C3)C2)C1", "note": "(mixture of isomers) [Example 170, Racemic (trans)-N-(6-(2-Hydroxypropan-2-yl)spiro[3.3]heptan-2-yl)-3-(quinolin-8-yloxy)cyclobutanecarboxamide]", "values": [{"measurement": "IC50", "result": "10 to 79.4", "unit": "nM"}]}, {"smiles": "CC(C)(O)C12C3C4C1C1C2C3C41NC(=O)N1CC(Oc2cccc3scnc23)C1", "note": "(centres unmarked) [Example 317, 3-(Benzo[d]thiazol-4-yloxy)-N-(4-(2-hydroxypropan-2-yl)cuban-1-yl)azetidine-1-carboxamide]", "values": [{"measurement": "IC50", "result": "10 to 79.4", "unit": "nM"}]}, {"smiles": "COc1ccc(F)cc1O[C@H]1C[C@H](C(=O)Nc2nc(C3CC3)cs2)C1", "note": "[Example 167, (trans)-N-(4-Cyclopropylthiazol-2-yl)-3-(5-fluoro-2-methoxyphenoxy)cyclobutanecarboxamide]", "values": [{"measurement": "IC50", "result": "< 10", "unit": "nM"}]}, {"smiles": "COCCO[C@H]1CC[C@H](NC(=O)N2CC(Oc3cccc4scnc34)C2)CC1", "note": "[Example 59, 3-(Benzo[d]thiazol-4-yloxy)-N-((trans)-4-(2-methoxyethoxy)cyclohexyl)azetidine-1-carboxamide]", "values": [{"measurement": "IC50", "result": "10 to 79.4", "unit": "nM"}]}, {"smiles": "CC(C)(C)c1csc(NC(=O)[C@H]2C[C@H](Oc3cccc4cccnc34)C2)n1", "note": "[Example 211, (trans)-N-(4-(tert-Butyl)thiazol-2-yl)-3-(quinolin-8-yloxy)cyclobutanecarboxamide]", "values": [{"measurement": "IC50", "result": "10 to 79.4", "unit": "nM"}]}, {"smiles": "COc1ccc(F)cc1O[C@H]1C[C@H](C(=O)NC2CC3(C2)CC(C(C)(C)O)C3)C1", "note": "(mixture of isomers) [Example 160, Racemic (trans)-3-(5-Fluoro-2-methoxyphenoxy)-N-(6-(2-hydroxypropan-2-yl)spiro[3.3]heptan-2-yl)cyclobutanecarboxamide]", "values": [{"measurement": "IC50", "result": "< 10", "unit": "nM"}]}, {"smiles": "O=C(NC1CCS(=O)(=O)C1)[C@H]1C[C@H](Oc2cccc3scnc23)C1", "note": "(mixture of isomers) [Example 254, Racemic (trans)-3-(Benzo[d]thiazol-4-yloxy)-N-(1,1-dioxidotetrahydrothiophen-3-yl)cyclobutanecarboxamide]", "values": [{"measurement": "IC50", "result": "100 to 1000", "unit": "nM"}]}, {"smiles": "O=C(NC1CCN(c2ncc(F)cn2)CC1)[C@H]1C[C@H](Oc2cccc3scnc23)C1", "note": "[Example 41, (trans)-3-(Benzo[d]thiazol-4-yloxy)-N-(1-(5-fluoropyrimidin-2-yl)piperidin-4-yl)cyclobutanecarboxamide]", "values": [{"measurement": "IC50", "result": "10 to 79.4", "unit": "nM"}]}, {"smiles": "COc1ccc(Cl)cc1O[C@H]1C[C@H](C(=O)Nc2nc(C(C)=O)cs2)C1", "note": "[Example 274, (trans)-N-(4-Acetylthiazol-2-yl)-3-(5-chloro-2-methoxyphenoxy)cyclobutanecarboxamide]", "values": [{"measurement": "IC50", "result": "< 10", "unit": "nM"}]}, {"smiles": "COC(=O)c1coc(N2CC(NC(=O)[C@H]3C[C@H](Oc4cccc5scnc45)C3)C2)n1", "note": "[Example 45, Methyl 2-(3-((trans)-3-(benzo[d]thiazol-4-yloxy)cyclobutanecarboxamido)azetidin-1-yl)oxazole-4-carboxylate]", "values": [{"measurement": "IC50", "result": "100 to 1000", "unit": "nM"}]}, {"smiles": "CC(C)(O)[C@H]1CC[C@H](NC(=O)[C@H]2C[C@H](Oc3cccc4c(Br)coc34)C2)CC1", "note": "[Example 269, (trans)-3-((3-Bromobenzofuran-7-yl)oxy)-N-((trans)-4-(2-hydroxypropan-2-yl)cyclohexyl)cyclobutanecarboxamide]", "values": [{"measurement": "IC50", "result": "10 to 79.4", "unit": "nM"}]}, {"smiles": "Cc1nc2c(OC3CN(C(=O)N[C@H]4CC[C@H](C(C)(C)O)CC4)C3)cccc2s1", "note": "[Example 300, N-((trans)-4-(2-Hydroxypropan-2-yl)cyclohexyl)-3-((2-methylbenzo[d]thiazol-4-yl)oxy)azetidine-1-carboxamide]", "values": [{"measurement": "IC50", "result": "1260 to 2000", "unit": "nM"}]}, {"smiles": "CC(C)(O)[C@H]1CC[C@H](NC(=O)N2CC(Oc3cccc4cccnc34)C2)CC1", "note": "[Example 185, N-((trans)-4-(2-Hydroxypropan-2-yl)cyclohexyl)-3-(quinolin-8-yloxy)azetidine-1-carboxamide]", "values": [{"measurement": "IC50", "result": "10 to 79.4", "unit": "nM"}]}, {"smiles": "COc1ccc(CN2CCC(NC(=O)[C@H]3C[C@H](Oc4cc(F)ccc4OC)C3)CC2)cc1Cl", "note": "[Example 156, (trans)-N-(1-(3-Chloro-4-methoxybenzyl)piperidin-4-yl)-3-(5-fluoro-2-methoxyphenoxy)cyclobutanecarboxamide]", "values": [{"measurement": "IC50", "result": "10 to 79.4", "unit": "nM"}]}, {"smiles": "O=C(NC1CN(c2ncc(CO)cn2)C1)[C@H]1C[C@H](Oc2cc(F)cc3scnc23)C1", "note": "[Example 114, (trans)-3-((6-Fluorobenzo[d]thiazol-4-yl)oxy)-N-(1-(5-(hydroxymethyl)pyrimidin-2-yl)azetidin-3-yl)cyclobutanecarboxamide]", "values": [{"measurement": "IC50", "result": "10 to 79.4", "unit": "nM"}]}, {"smiles": "CC(C)(O)C12CC(NC(=O)[C@H]3C[C@H](Oc4cccc5scnc45)C3)(C1)C2", "note": "[Example 318, (trans)-3-(Benzo[d]thiazol-4-yloxy)-N-(3-(2-hydroxypropan-2-yl)bicyclo[1.1.1]pentan-1-yl)cyclobutane-1-carboxamide]", "values": [{"measurement": "IC50", "result": "10 to 79.4", "unit": "nM"}]}, {"smiles": "Cc1ccc(N2CC(NC(=O)N3CC(Oc4cccc5scnc45)C3)C2)nc1", "note": "[Example 244]", "values": [{"measurement": "IC50", "result": "10 to 79.4", "unit": "nM"}]}, {"smiles": "O=C(N[C@H]1CC[C@@H](NC(CO)C(F)(F)F)CC1)[C@H]1C[C@H](Oc2cc(F)cc3scnc23)C1", "note": "(mixture of isomers) [Example 125, Racemic (trans)-3-((6-Fluorobenzo[d]thiazol-4-yl)oxy)-N-((cis)-4-((1,1,1-trifluoro-3-hydroxypropan-2-yl)amino)cyclohexyl)cyclobutanecarboxamide]", "values": [{"measurement": "IC50", "result": "10 to 79.4", "unit": "nM"}]}, {"smiles": "Cn1cc(NC(=O)N2CC(Oc3cccc4scnc34)C2)cn1", "note": "[Example 324, 3-(Benzo[d]thiazol-4-yloxy)-N-(1-methyl-1H-pyrazol-4-yl)azetidine-1-carboxamide]", "values": [{"measurement": "IC50", "result": "100 to 1000", "unit": "nM"}]}, {"smiles": "Cc1ccc(N2CC(NC(=O)[C@H]3C[C@H](Oc4cccc5scnc45)C3)C2)nc1", "note": "[Example 239, (trans)-3-(Benzo[d]thiazol-4-yloxy)-N-(1-(5-methylpyridin-2-yl)azetidin-3-yl)cyclobutanecarboxamide]", "values": [{"measurement": "IC50", "result": "10 to 79.4", "unit": "nM"}]}, {"smiles": "O=C1CC(NC(=O)[C@H]2C[C@H](Oc3cc(F)ccc3OC(F)F)C2)c2ccccc2N1", "note": "(mixture of isomers) [Example 25, Racemic (trans)-3-(2-(Difluoromethoxy)-5-fluorophenoxy)-N-(2-oxo-1,2,3,4-tetrahydroquinolin-4-yl)cyclobutanecarboxamide]", "values": [{"measurement": "IC50", "result": "10 to 79.4", "unit": "nM"}]}, {"smiles": "O=C(Nc1ccc(N2CCOCC2)cc1)N1CC(Oc2cccc3scnc23)C1", "note": "[Example 310, 3-(Benzo[d]thiazol-4-yloxy)-N-(4-morpholinophenyl)azetidine-1-carboxamide]", "values": [{"measurement": "IC50", "result": "10 to 79.4", "unit": "nM"}]}, {"smiles": "N#Cc1cnc(NC(=O)[C@H]2C[C@H](Oc3cccc4cccnc34)C2)s1", "note": "[Example 190, (trans)-N-(5-Cyanothiazol-2-yl)-3-(quinolin-8-yloxy)cyclobutanecarboxamide]", "values": [{"measurement": "IC50", "result": "10 to 79.4", "unit": "nM"}]}, {"smiles": "O=C(NC1CN(c2ncc(F)cn2)C1)N1CC(Oc2cccc3scnc23)C1", "note": "[Example 61, 3-(Benzo[d]thiazol-4-yloxy)-N-(1-(5-fluoropyrimidin-2-yl)azetidin-3-yl)azetidine-1-carboxamide]", "values": [{"measurement": "IC50", "result": "10 to 79.4", "unit": "nM"}]}, {"smiles": "O=C(Nc1cncnc1)[C@H]1C[C@H](Oc2cc(F)ccc2OC(F)F)C1", "note": "[Example 22, (trans)-3-(2-(Difluoromethoxy)-5-fluorophenoxy)-N-(pyrimidin-5-yl)cyclobutanecarboxamide]", "values": [{"measurement": "IC50", "result": "100 to 1000", "unit": "nM"}]}, {"smiles": "CC(=O)c1csc(NC(=O)[C@H]2C[C@H](Oc3cc(Cl)ccc3OC(F)F)C2)n1", "note": "[Example 272, (trans)-N-(4-Acetylthiazol-2-yl)-3-(5-chloro-2-(difluoromethoxy)phenoxy)cyclobutanecarboxamide]", "values": [{"measurement": "IC50", "result": "10 to 79.4", "unit": "nM"}]}, {"smiles": "CN(C)c1ccnc(N2CC(NC(=O)[C@H]3C[C@H](Oc4cccc5scnc45)C3)C2)n1", "note": "[Example 75, (trans)-3-(Benzo[d]thiazol-4-yloxy)-N-(1-(4-(dimethylamino)pyrimidin-2-yl)azetidin-3-yl)cyclobutanecarboxamide]", "values": [{"measurement": "IC50", "result": "10 to 79.4", "unit": "nM"}]}, {"smiles": "COc1ccc(F)cc1O[C@H]1C[C@H](C(=O)NC2CCN(c3nnnn3C)CC2)C1", "note": "[Example 152, (trans)-3-(5-Fluoro-2-methoxyphenoxy)-N-(1-(1-methyl-1H-tetrazol-5-yl)piperidin-4-yl)cyclobutanecarboxamide]", "values": [{"measurement": "IC50", "result": "10 to 79.4", "unit": "nM"}]}, {"smiles": "O=C(NC1CN(c2ccnc(Cl)n2)C1)N1CC(Oc2cccc3scnc23)C1", "note": "[Example 60, 3-(Benzo[d]thiazol-4-yloxy)-N-(1-(2-chloropyrimidin-4-yl)azetidin-3-yl)azetidine-1-carboxamide]", "values": [{"measurement": "IC50", "result": "10 to 79.4", "unit": "nM"}]}, {"smiles": "CCOC(=O)c1csc(NC(=O)[C@H]2C[C@H](Oc3cccc4cccnc34)C2)n1", "note": "[Example 192, Ethyl 2-((trans)-3-(quinolin-8-yloxy)cyclobutanecarboxamido)thiazole-4-carboxylate]", "values": [{"measurement": "IC50", "result": "< 10", "unit": "nM"}]}]}
